The assay deals with Neuronal acetylcholine receptor; alpha4/beta2 (Rattus norvegicus, UniProt P09483+P12390). The assay can be described thus: In vitro binding affinity towards (alpha-4)2(beta-2)3 neuronal nicotinic acetylcholine receptor in P2 membrane fractions of rat forebrain. It counts as cell membranes.

The structures appear in SMILES notation. A value given as a limit tells only on which side of the number the result lay.

Sequence of Neuronal acetylcholine receptor; alpha4/beta2 (P09483 whole entry): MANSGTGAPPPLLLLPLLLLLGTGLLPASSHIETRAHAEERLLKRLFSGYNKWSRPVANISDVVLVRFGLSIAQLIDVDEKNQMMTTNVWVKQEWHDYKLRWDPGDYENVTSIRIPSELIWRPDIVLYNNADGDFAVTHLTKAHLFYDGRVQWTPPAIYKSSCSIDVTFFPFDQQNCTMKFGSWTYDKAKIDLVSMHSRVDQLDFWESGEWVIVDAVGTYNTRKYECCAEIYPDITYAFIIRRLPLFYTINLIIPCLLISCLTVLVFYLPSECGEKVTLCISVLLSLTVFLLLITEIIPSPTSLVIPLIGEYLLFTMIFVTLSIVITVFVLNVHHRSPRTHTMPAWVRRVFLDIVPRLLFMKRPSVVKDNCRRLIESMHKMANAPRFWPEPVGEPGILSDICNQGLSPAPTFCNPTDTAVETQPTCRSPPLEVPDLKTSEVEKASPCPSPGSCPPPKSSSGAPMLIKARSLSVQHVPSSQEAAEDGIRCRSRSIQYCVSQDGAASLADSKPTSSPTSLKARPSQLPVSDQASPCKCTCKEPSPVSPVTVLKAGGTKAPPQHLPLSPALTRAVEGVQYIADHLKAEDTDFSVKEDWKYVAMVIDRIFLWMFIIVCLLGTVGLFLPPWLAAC
Sequence of Neuronal acetylcholine receptor; alpha4/beta2 (P12390 whole entry): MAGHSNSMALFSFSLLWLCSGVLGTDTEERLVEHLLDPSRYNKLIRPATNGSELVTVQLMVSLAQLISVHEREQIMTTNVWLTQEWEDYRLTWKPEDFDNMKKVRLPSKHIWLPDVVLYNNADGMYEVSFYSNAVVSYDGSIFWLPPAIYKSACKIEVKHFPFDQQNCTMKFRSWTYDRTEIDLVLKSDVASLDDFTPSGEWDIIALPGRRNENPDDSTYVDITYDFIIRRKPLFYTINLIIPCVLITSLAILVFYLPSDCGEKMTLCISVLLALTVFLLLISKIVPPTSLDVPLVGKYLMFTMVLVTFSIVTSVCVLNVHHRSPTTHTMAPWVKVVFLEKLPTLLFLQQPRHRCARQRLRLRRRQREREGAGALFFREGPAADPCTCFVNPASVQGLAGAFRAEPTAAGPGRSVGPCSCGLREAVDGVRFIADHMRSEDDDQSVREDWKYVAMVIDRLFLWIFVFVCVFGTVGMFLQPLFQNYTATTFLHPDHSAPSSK

As usually defined, the Ki is a dissociation constant, usually derived from enzyme kinetics or from competition with a known ligand. Lower therefore signals higher affinity. `O=c1c(I)cc(I)c2n1CC1CNCC2C1` (centres undefined) had a Ki of 0.525 nM.
As for `CN1C2CC=C(c3ccc(Cl)nc3)C1CC2` (centres undefined), the figure is 8.91 nM; as for `CN1C2CCC1C(c1ccc(Cl)nc1)C2` (centres undefined), 0.0269 nM.
As for `C1=C(c2cnccn2)CC2CCC1N2` (centres undefined), the figure is 30.9 nM; as for `O=c1c(Br)cc(Br)c2n1CC1CNCC2C1` (centres undefined), 10.7 nM.
As for `CN1C2CCC1CN(c1ccc(Cl)nn1)CC2` (centres undefined), the figure is 0.55 nM; as for `CN1C2CCC1CN(c1cncnc1)CC2` (centres undefined), 2.09 nM.
On to `CN1C2CCC1C(c1ccc(F)nc1)C2` (centres undefined), for which the Ki was 0.0282 nM.
Take `C1=C(c2cnccn2)C2CCC(CC1)N2` (centres undefined): the Ki is 12 nM.
As for `O=c1ccc(I)c2n1CC1CNCC2C1` (centres undefined), the figure is 0.229 nM.
In the case of `S=c1cccc2n1CC1CNCC2C1` (centres undefined), the Ki is 0.832 nM.
For `c1nncc2c1CC1CCC2N1` (centres undefined) the value was 75.9 nM; for `O=c1ccc(Cl)c2n1CC1CNCC2C1` (centres undefined), 2.51 nM; for `C1=C(c2cncnc2)C2CCC(C1)N2` (centres undefined), 3.72 nM.
As for `Brc1ccc(C2CC3CCC2N3)cn1` (centres undefined), the figure is 0.0447 nM; as for `CC(=O)C1=CCC2CCC1N2` (centres undefined), 93.3 nM; as for `C1=C(c2ccnnc2)C2CCC(CC1)N2` (centres undefined), 19.1 nM.
For `C1=C(c2ccnnc2)CC2CCC1N2` (centres undefined) the value was 10 nM.
In the case of `c1ncc2c(n1)CC1CCC2N1` (centres undefined), the Ki is 676 nM.
As for `CN(C)C(=O)C1=CCC2CCC1N2` (centres undefined), the figure is 61700 nM.
As for `Clc1nccnc1C1=CC2CCC(C1)N2` (centres undefined), the figure is 209 nM; as for `C1=C(c2cncnc2)C2CCN1CC2`, 12.3 nM; as for `Clc1ccc(C2=CN3CCC2CC3)cn1`, 2.29 nM.
For `O=c1c(Br)ccc2n1CC1CNCC2C1` (centres undefined) the value was 0.01 nM.
With `CN1C2CC=C(c3cncnc3)C1CC2` (centres undefined), affinity was put at a Ki of 12.6 nM.
`C1=C(c2ccnnc2)C2CCC(C1)N2` (centres undefined) showed a Ki of 7.94 nM.
As for `CC(=O)C1=CCC2CCC1N2C` (centres undefined), the figure is 120 nM; as for `CN(C)C(=S)C1=CCC2CCC1N2` (centres undefined), 2450 nM.
As for `COC(=O)C1=C(c2cccnc2)CC2CCC1N2C` (centres undefined), the figure is 4900 nM; as for `Clc1ncc(C2=CCC3CCC2N3)cn1` (centres undefined), 2 nM.
As for `O=c1ccc(Br)c2n1CC1CNCC2C1` (centres undefined), the figure is 0.309 nM; as for `CN1C2CC=C(c3cccnc3)C1CC2` (centres undefined), 9.55 nM.
`C1=C(c2cccnc2)C2CCC(CC1)N2` (centres undefined) showed a Ki of 0.0513 nM.
For `Ic1ccc(C2CC3CCC2N3)cn1` (centres undefined) the value was 0.0251 nM; for `Fc1ccc(C2CC3CCC2N3)cn1` (centres undefined), 0.0282 nM.
As for `CN1C2CCC1CN(c1ccnnc1)CC2` (centres undefined), the figure is 0.525 nM; as for `CN1C2CCC1CN(c1ccc(Cl)nc1)CC2` (centres undefined), 0.871 nM; as for `CN(C)C(=S)C1=CCC2CCC1N2C` (centres undefined), more than 20000 nM.
For `Clc1nccnc1C1=CCC2CCC1N2` (centres undefined) the value was 4170 nM; for `C1=C(c2cncnc2)CC2CCC1N2` (centres undefined), 0.661 nM.
`Clc1ncc(C2=CCCC3CCC2N3)cn1` (centres undefined) had a Ki of 0.151 nM.
Regarding `C1=C(c2cccnc2)CC2CCC1N2` (centres undefined), the Ki was 0.257 nM.
For the compound `Clc1ncc(C2=CC3CCC(C2)N3)cn1` (centres undefined), the Ki is 0.708 nM. This Ki lies about 2.8-fold higher than the previous one.
For `CN1C2CCC1C(c1ccc(Br)nc1)C2` (centres undefined) the value was 0.0363 nM.
For `O=c1c(I)ccc2n1CC1CNCC2C1` (centres undefined) the value was 0.017 nM; for `C1=C(c2cccnc2)C2CCC(C1)N2` (centres undefined), 1.58 nM; for `Cc1cc(C2=CCC3CCC2N3C)on1` (centres undefined), 31.6 nM.
With `C1=C(c2cnccn2)C2CCC(C1)N2` (centres undefined), the inhibition constant Ki was 398 nM.
For `CN1C2C=C(c3ccc(Cl)nc3)CC1CC2` (centres undefined) the value was 1.55 nM; for `C1=C(c2cncnc2)C2CCC(CC1)N2` (centres undefined), 0.141 nM.
Take `c1nncc2c1CCC1CCC2N1` (centres undefined): the Ki was 34.7 nM.
In turn, `CN(C)C(=O)C1=CCC2CCC1N2C` (centres undefined) had a Ki of 2000 nM.
Compound `O=c1c(Cl)ccc2n1CC1CNCC2C1` (centres undefined) gave a Ki of 0.0224 nM.
`COC(=O)C1=C(c2cncnc2)CC2CCC1N2C` (centres undefined) gave an inhibitory constant (Ki) of 214 nM.
As for `C1=C(c2cccnc2)C2CCN1CC2`, the figure is 7.59 nM; as for `CN1C2CCC1CN(c1cnccn1)CC2` (centres undefined), 263 nM.
As for `COC(=O)C1=C(c2ccc(Cl)nc2)CC2CCC1N2C` (centres undefined), the figure is 1660 nM; as for `O=c1c(Cl)cc(Cl)c2n1CC1CNCC2C1` (centres undefined), 2.51 nM; as for `CN1CC2CC(C1)c1cccc(=O)n1C2` (centres undefined), 5.75 nM.
As for `c1ncc2c(n1)C1CCC(C2)N1` (centres undefined), the figure is more than 10000 nM.
`CN1C2C=C(c3cncnc3)CC1CC2` (stereo in doubt; 33) gave a Ki of 43.7 nM.
For `CN1C2C=C(c3cncnc3)CC1CC2` (stereo in doubt; 58) the value was 1.26 nM; for `O=c1cccc2n1C[C@@H]1CNC[C@H]2C1` [CYTISINICLINE], 0.123 nM; for `c1cncc(C2CC3CCC2N3)c1` (centres undefined) [DESCHLOROEPIBATIDINE], 0.0257 nM.

Values taken from ChEMBL document CHEMBL1144890, “3D QSAR analyses-guided rational design of novel ligands for the (alpha4)2(beta2)3 nicotinic acetylcholine receptor” (J Med Chem, 2003).
